Data: patent US10792282B2, “Protein kinase C inhibitors and uses thereof” (Rigel Pharmaceuticals, Inc., priority 2013, dated 2020)
Like-named read-outs stand apart in the source and are kept apart here.

System: PKC mediated IL-2 production
Test: IL-2 ELISA, human primary T cell, anti CD3+CD28+ (whole cell functional assay)
Assay type: cell-based
Procedure: Human primary T cells were prepared as follows. Fresh PBMC's from All Cells (Cat # PB002) were re-suspended in RPMI (RPMI-1640 with L-Glutamine; Mediatech, Inc., Herndon Va., cat. #10-040-CM) with 10% FBS and seeded into flasks and incubated at 37° C. for 2 hours to allow the monocytes to adhere. The non-adherent cells were then centrifuged and re-suspended in RPMI medium containing 40 U/ml IL2 and seeded into a flask pre-coated with 1 μg/ml aCD3 and 5 ug/ml aCD28 (Anti-Human CD3, BD Pharmingen Catalog #555336, Anti-Human CD28, Beckman Coulter Catalog # IM1376). The cells were stimulated for 3-4 days, then transferred to a fresh flask and maintained in RPMI (RPMI-1640 with L-Glutamine; Mediatech, Inc., Herndon Va., cat. #10-040-CM) with 10% FBS and 40 U/ml IL-2.
(§1) Human primary T cells (100,000 cells per well) were pre-incubated with or without test compound in RPMI-1640 with L-Glutamine and 10% FBS for 1 hour at 37° C. Cells were then stimulated by transferring them to round-bottom 96-well plates pre-coated with 1 μg/ml αCD3 and 5 μg/ml αCD28. For counter assay, cells were instead stimulated by adding 8× stock solutions of PMA and ionomycin in RPMI-1640 with L-Glutamine and 10% FBS (for final concentrations of 0.5 ng/ml PMA and 0.1 μM ionomycin, both from Calbiochem). Cells were incubated at 37° C. for 24 hours before 100 μL supernatants were harvested for quantification of IL-2 by ELISA using Human IL-2 Duoset ELISA Kit from R and D Systems, Cat. # DY202E.
Compounds 1-90 were tested in a whole cell functional assay for PKC mediated IL-2 production as follows. Human primary T cell isolation and culture: Human primary T cells were prepared as follows. Whole blood was obtained from a healthy volunteer, mixed 1:1 with PBS, layered on to Ficoll Hypaque (Amersham Pharmacia Biotech, Piscataway, N.J., Catalog #17-1440-03) in 2:1 blood/PBS:ficoll ratio and centrifuged for 30 minutes at 4° C. at 1750 rpm. The cells at the serum: ficoll interface were recovered and washed twice with 5 volumes of PBS. These freshly isolated human peripheral blood mononuclear cells were cultured in Yssel's medium containing 40 U/ml IL2 in a flask pre-coated with 1 μg/ml αCD3 and 5 μg/ml αCD28 (Anti-Human CD3, BD Pharmingen Catalog #555336, Anti-Human CD28, Beckman Coulter Catalog # IM1376). The cells were stimulated for 3-4 days, then transferred to a fresh flask and maintained in RPMI (RPMI-1640 with L-Glutamine; Mediatech, Inc., Herndon Va., cat. #10-040-CM) with 10% FBS and 40 U/ml IL-2. The primary T-cells were then washed twice with PBS to remove the IL-2.
as §1, with “Primary T cell stimulation and IL2 ELISA: Human primary” for “Human primary”, “compound in Yssel's medium for 1” for “compound in RPMI-1640 with L-Glutamine and 10% FBS for 1”, “ionomycin in Yssels (for final” for “ionomycin in RPMI-1640 with L-Glutamine and 10% FBS (for final”, “and 0.1 uM ionomycin, both” for “and 0.1 μM ionomycin, both”

[1] = Homo sapiens, T-cell, 24 h, IL-2 production, human primary T cells stimulated with αCD3 and αCD28, 24 hours, IL-2 by ELISA, read-out: EC50
[2] = Homo sapiens, T-cell, human primary T cells stimulated with αCD3 and αCD28, IL-2 by ELISA, read-out: EC50 (blocked IL-2 production)
[3] = IL-2 production, human primary T cells stimulated with αCD3 and αCD28, 24 hours, IL-2 by ELISA, read-out: EC50

## Cn1nnn(-c2cc(Nc3ncc(F)c(N[C@@H]4C[C@@H]5CCCN5C(C)(C)C4)n3)c(F)cc2OC(C)(C)CO)c1=O [Compound 85, 1-(2-(1-hydroxy-2-methylpropan-2-yloxy)-5-(4-((7R,8aS)-octahydro-5,5-dimethylindolizin-7-ylamino)-5-fluoropyrimidin-2-ylamino)-4-fluorophenyl)-4-methyl-1H-tetrazol-5(4H)-one]
[1]
  EC50: < 0.5 µM
[2]
  EC50: < 10 µM

## COc1cc(Nc2ncc(F)c(NC3CC4CCCN4C(C)(C)C3)n2)cc(-n2nnnc2C)c1 (centres unmarked) [Compound 11, (R/S, S/R, R/R, S/S)-5-fluoro-N4-(octahydro-5,5-dimethylindolizin-7-yl)N2-(3-methoxy-5-(5-methyl-1H-tetrazol-1-yl)phenyl)pyrimidine-2,4-diamine]
[3]
  EC50: < 10 µM

## Cn1nnn(-c2cc(Nc3ncc(F)c(N[C@@H]4C[C@@H]5CCCN5C(C)(C)C4)n3)ccc2OC2CCOCC2)c1=O [Compound 52, 1-(5-(5-fluoro-4-(octahydro-5,5-dimethylindolizin-7-ylamino)pyrimidin-2-ylamino)-2-(tetrahydro-2H-pyran-4-yloxy)phenyl)-4-methyl-1H-tetrazol-5(4H)-one]
[1]
  EC50: < 0.5 µM
[2]
  EC50: < 10 µM

## Cn1nnn(-c2cc(Nc3ncc(C#N)c(N[C@@H]4C[C@@H]5CCCN5C(C)(C)C4)n3)c(F)cc2OCC(C)(C)O)c1=O [Compound 80, 4-((7R,8aS)-octahydro-5,5-dimethylindolizin-7-ylamino)-2-(4-(2-hydroxy-2-methylpropoxy)-2-fluoro-5-(4,5-dihydro-4-methyl-5-oxotetrazol-1-yl)phenylamino)pyrimidine-5-carbonitrile]
[1]
  EC50: < 0.1 µM
[2]
  EC50: < 10 µM

## Cn1nnn(-c2cc(Nc3ncc(F)c(NC4CC5CCCN5C(C)(C)C4)n3)ccc2O[C@@H]2CCOC2)c1=O (stereo partly drawn) [Compound 47, 1-(2-((R)-tetrahydrofuran-3-yloxy)-5-(5-fluoro-4-(octahydro-5,5-dimethylindolizin-7-ylamino)pyrimidin-2-ylamino)phenyl)-4-methyl-1H-tetrazol-5(4H)-one]
[1]
  EC50: < 0.1 µM
[2]
  EC50: < 10 µM

## Cn1nnn(-c2cc(Nc3ncc(C#N)c(N[C@@H]4C[C@@H]5CCCN5C(C)(C)C4)n3)ccc2OC(C)(C)CO)c1=O [Compound 83, 4-((7R,8aS)-octahydro-5,5-dimethylindolizin-7-ylamino)-2-(4-(1-hydroxy-2-methylpropan-2-yloxy)-3-(4,5-dihydro-4-methyl-5-oxotetrazol-1-yl)phenylamino)pyrimidine-5-carbonitrile]
[1]
  EC50: < 0.1 µM
[2]
  EC50: < 10 µM

## Cc1nnnn1-c1cc(Nc2ncc(F)c(NC3CC(C)(C)N4CCCC4C3C)n2)ccc1F (single isomer, unassigned) [Compound 70, 5-Fluoro-N2-(4-fluoro-3-(5-methyl-1H-tetrazol-1-yl)phenyl)-N4-(octahydro-5,5,8-trimethylindolizin-7-yl)pyrimidine-2,4-diamine]
[1]
  EC50: < 10 µM
[2]
  EC50: < 10 µM

## Cn1nnn(-c2cc(Nc3ncc(F)c(N[C@H]4C[C@@H]5CC(F)(F)CN5C(C)(C)C4)n3)c(F)cc2C2CC2)c1=O [Compound 42, 1-(5-(4-((7S,8aR)-2,2-difluoro-octahydro-5,5-dimethylindolizin-7-ylamino)-5-fluoropyrimidin-2-ylamino)-2-cyclopropyl-4-fluorophenyl)-4-methyl-1H-tetrazol-5(4H)-one]
[1]
  EC50: < 10 µM
[2]
  EC50: < 10 µM

## Cn1nnn(-c2cc(Nc3ncc(F)c(N[C@@H]4C[C@@H]5C[C@@H](O)CN5C(C)(C)C4)n3)c(F)cc2C2CC2)c1=O [Compound 68, 1-(5-(4-((2R,7R,8aR)-2-hydroxy-octahydro-5,5-dimethylindolizin-7-ylamino)-5-fluoropyrimidin-2-ylamino)-2-cyclopropyl-4-fluorophenyl)-4-methyl-1H-tetrazol-5(4H)-one]
[1]
  EC50: < 0.5 µM
[2]
  EC50: < 10 µM

## Cn1nnn(-c2cc(Nc3ncc(F)c(NC4CC5CCCN5C(C)(C)C4)n3)ccc2OC2COC2)c1=O (racemic) [Compound 38, 1-(5-(5-fluoro-4-(octahydro-5,5-dimethylindolizin-7-ylamino)pyrimidin-2-ylamino)-2-(oxetan-3-yloxy)phenyl)-4-methyl-1H-tetrazol-5(4H)-one]
[3]
  EC50: < 0.5 µM

## Cn1nnn(-c2cc(Nc3ncc(F)c(N[C@@H]4C[C@@H]5CCCN5C(C)(C)C4)n3)ccc2OC(C)(C)CO)c1=O [Compound 86, 1-(2-(1-hydroxy-2-methylpropan-2-yloxy)-5-(4-((7R,8aS)-octahydro-5,5-dimethylindolizin-7-ylamino)-5-fluoropyrimidin-2-ylamino)phenyl)-4-methyl-1H-tetrazol-5(4H)-one]
[1]
  EC50: < 0.1 µM
[2]
  EC50: < 10 µM

## Fc1cc(C2CC2)c(-n2cnnn2)cc1Nc1ncc(F)c(NC2CCN3CCCC3C2)n1 (racemic) [Compound 24, (±)-N^2-(4-cyclopropyl-2-fluoro-5-(1H-tetrazol-1-yl)phenyl)-5-fluoro-n^4-(octahydroindolizin-7-yl)pyrimidine-2,4-diamine]
[1]
  EC50: < 0.5 µM
[2]
  EC50: < 10 µM

## CC1(C)C[C@@H](Nc2nc(Nc3cc(-n4cnnn4)c(C4CC4)cc3F)ncc2F)C[C@@H]2CC(F)(F)CN21 [Compound 43, N^2-(4-cyclopropyl-2-fluoro-5-(1H-tetrazol-1-yl)phenyl)-5-fluoro-N^4-((7S,8aR)-2,2-difluoro-octahydro-5,5-dimethylindolizin-7-yl)pyrimidine-2,4-diamine]
[1]
  EC50: < 10 µM
[2]
  EC50: < 10 µM

## Cn1nnn(-c2cc(Nc3ncc(C#N)c(N[C@@H]4CC5CCCN5C(C)(C)C4)n3)c(F)cc2C2CC2)c1=O (some centres unmarked) [Compound 76]
[1]
  EC50: < 0.1 µM
[2]
  EC50: < 10 µM

## Cn1nnn(-c2cc(Nc3ncc(F)c(N[C@@H]4C[C@@H]5CCCN5C(C)(C)C4)n3)c(F)cc2OCC(C)(C)O)c1=O [Compound 87, 1-(5-(4-((7R,8aS)-5,5-dimethyloctahydroindolizin-7-ylamino)-5-fluoropyrimidin-2-ylamino)-4-fluoro-2-(2-hydroxy-2-methylpropoxy)phenyl)-4-methyl-1H-tetrazol-5(4H)-one]
[1]
  EC50: < 0.1 µM
[2]
  EC50: < 10 µM

## Cn1nnn(-c2cc(Nc3ncc(F)c(N[C@@H]4C[C@@H]5CCCN5C(C)(C)C4)n3)c(F)cc2OC2COC2)c1=O [Compound 88, 1-(5-(4-((7R,8aS)-octahydro-5,5-dimethylindolizin-7-ylamino)-5-fluoropyrimidin-2-ylamino)-4-fluoro-2-(oxetan-3-yloxy)phenyl)-4-methyl-1H-tetrazol-5(4H)-one]
[1]
  EC50: < 0.5 µM
[2]
  EC50: < 10 µM

## CC1(C)CC(Nc2nc(Nc3ccc(OC4COC4)c(C#N)c3)ncc2F)CC2CCCN21 (single isomer, unassigned) [Compound 63, 5-(5-fluoro-4-(octahydro-5,5-dimethylindolizin-7-ylamino)pyrimidin-2-ylamino)-2-(oxetan-3-yloxy)benzonitrile]
[1]
  EC50: < 0.5 µM
[2]
  EC50: < 10 µM

## CC1(C)C[C@H](Nc2nc(Nc3cc(-n4cnnn4)c(C4CC4)cc3F)ncc2C#N)C[C@@H]2CCCN21 (racemic) [Compound 56, (±)-2-(4-cyclopropyl-2-fluoro-5-(1H-tetrazol-1-yl)phenylamino)-4-(octahydro-5,5-dimethylindolizin-7-ylamino)pyrimidine-5-carbonitrile]
[1]
  EC50: < 0.1 µM
[2]
  EC50: < 10 µM

## Cn1nnn(-c2cc(Nc3ncc(F)c(N[C@H]4CCN5[C@@H](CCC5(C)C)C4)n3)c(F)cc2C2CC2)c1=O (single isomer, unassigned) [Compound 37]
[3]
  EC50: < 10 µM
